Assay results as given in US10774071B2, “PD-1/PD-L1 inhibitors” (Gilead Sciences, Inc., priority 2018, dated 2020).
Like-named read-outs stand apart in the source and are kept apart here.

Columns and labels:
PD-1/PD-L1 = PD-1/PD-L1 (Homo sapiens (Human), UniProt Q9NZQ7); assay: PD-1/PD-L1 biochemical protein-protein interaction assay (ALPHA); type: binding; settings: read-out: IC50 PD-L1-PD1
PD-L1 = PD-L1 (Homo sapiens (Human), UniProt Q9NZQ7); assay: PD-L1/PD-L1 dimerization biochemical protein-protein interaction assay (ALPHA); type: binding; settings: read-out: AC50 PDL1 Dimer 1 nM
[1] = 0.3 nM His tagged PD-L1, 2.5 nM biotinylated Fc-PD-1, readings of 0.064 nM are equal to or less than 0.064 nM
[2] = 0.5 nM His tagged PD-L1 and 0.5 nM FLAG tagged PD-L1, Table 4A
[3] = 0.3 nM His tagged PD-L1, 2.5 nM biotinylated Fc-PD-1, Table 3B
[4] = 0.5 nM His tagged PD-L1 and 0.5 nM FLAG tagged PD-L1, Table 4B

Chain of PD-1/PD-L1 (Q9NZQ7 19-238): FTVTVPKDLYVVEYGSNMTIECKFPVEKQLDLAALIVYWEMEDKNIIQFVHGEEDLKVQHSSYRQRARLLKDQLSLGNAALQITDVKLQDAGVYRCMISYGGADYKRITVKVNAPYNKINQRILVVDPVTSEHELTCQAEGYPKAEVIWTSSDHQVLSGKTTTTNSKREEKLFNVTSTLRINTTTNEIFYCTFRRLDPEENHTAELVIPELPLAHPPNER
Chain of PD-L1 (Q9NZQ7 19-238): as above
Chain of PD-L1 (Q9NZQ7 19-238): as above

| Compound | IC50 (PD-1/PD-L1; [1]) [nM] | AC50 (PD-L1; [2]) [nM] | IC50 (PD-1/PD-L1; [3]) [nM] | AC50 (PD-L1; [4]) [nM] |
| --- | --- | --- | --- | --- |
| COc1nc(-c2cccc(-c3cccc4c3CC[C@@H]4Nc3nc(OC)c(CNCC(=O)O)cc3C(F)(F)F)c2Cl)ccc1CNC[C@H]1C[C@](C)(O)C1 [A-84] | ≤ 0.064 | 31.8 | – | – |
| COc1nc(-c2cccc(-c3cccc4c3CC[C@@H]4Nc3nc(OC)c(CN4CC[C@@H](C(=O)O)C4)cc3C(F)(F)F)c2Cl)ccc1CNC[C@@H]1CCC(=O)N1 [A-4] | ≤ 0.064 | 14.3 | – | – |
| COc1nc(-c2cccc(-c3cccc4c3CC[C@@H]4Oc3nc(OC)c(CN4CC5(C(=O)O)CCC4CC5)cc3Cl)c2C#N)ccc1CNC[C@@H]1CCC(=O)N1 [B-68] | – | – | 0.064 | 48 |
| CNC(=O)CNCc1cc(C(F)(F)F)c(O[C@H]2CCc3c(-c4cccc(-c5ccc(CNC[C@@H]6CCC(=O)N6)c(OC)n5)c4Cl)cccc32)nc1OC [B-250] | – | – | 0.237 | 36.4 |
| COc1nc(-c2cccc(-c3cccc4c3CC[C@@H]4Oc3nc(OC)c(CN[C@H](C)CC(=O)O)cc3C(F)(F)F)c2Cl)ccc1CN[C@H]1C[C@](C)(O)C1 [B-253] | – | – | 0.064 | 8.73 |
| COc1nc(N[C@H]2CCc3c(-c4cccc(-c5ccc(CNC[C@@H]6CCC(=O)N6)c(OCC#N)n5)c4Cl)cccc32)c(C(F)(F)F)nc1CN1CC[C@@](C)(C(=O)O)C1 [A-26] | ≤ 0.064 | 13.4 | – | – |
| COc1nc(O[C@H]2CCc3c(-c4cccc(-c5ccc(CNC[C@@H]6CCC(=O)N6)c(OCC#N)n5)c4Cl)cccc32)c(Cl)cc1CN1CC[C@@H](C(=O)O)C1 [B-19] | – | – | 0.064 | 9.33 |
| COc1nc(-c2cccc(-c3cccc4c3CC[C@@H]4Oc3nc(OCc4cncc(Cl)c4)c(CN4CC[C@H](C(=O)O)C4)cc3Cl)c2Cl)ccc1CNC[C@@H]1CCC(=O)N1 [B-49] | – | – | 0.064 | 19.1 |
| COc1nc(O[C@H]2CCc3c(-c4cccc(-c5cc(C)c(CN6CC[C@@H](C(=O)O)C6)c(OC)n5)c4Cl)cccc32)c(Cl)cc1CNC[C@@H]1CCC(=O)N1 [B-133] | – | – | 0.064 | 99.1 |
| COc1nc(-c2cccc(-c3cccc4c3CC[C@@H]4Nc3nc(OC)c(CN[C@@H](C)C(=O)O)nc3C(F)(F)F)c2Cl)ccc1CNC[C@@H]1CC(O)C(=O)N1 (stereo partly shown) [A-45] | ≤ 0.064 | 5.86 | – | – |
| COc1nc(-c2cccc(-c3cccc4c3CC[C@@H]4Nc3nc(OC)c(CN4CC[C@@H](C(=O)O)C4)cc3C(F)(F)F)c2Cl)ccc1CN1CC(C)(O)C1 [A-25] | ≤ 0.064 | 28.1 | – | – |
| COc1nc(-c2cccc(-c3cccc4c3CC[C@@H]4Nc3nc(OC)c(CN4CCC[C@@]4(C)C(=O)O)cc3C(F)(F)F)c2Cl)ccc1CNC[C@@H]1CCC(=O)N1 [A-39] | ≤ 0.064 | 17.8 | – | – |
| COc1nc(-c2cccc(-c3cccc4c3CC[C@@H]4Nc3nc(OC)c(CN(C)CC(=O)O)cc3C(F)(F)F)c2Cl)ccc1CNC[C@@H]1CCC(=O)N1 [A-35] | ≤ 0.064 | 13.2 | – | – |
| COc1cc(O[C@H]2CCc3c(-c4cccc(-c5ccc(CNC[C@@H]6CCC(=O)N6)c(OC)n5)c4Cl)cccc32)c(C(F)(F)F)cc1CN1CC[C@@](C)(C(=O)O)C1 [B-218] | – | – | 0.064 | 17.3 |
| COc1nc(-c2cccc(-c3cccc4c3CC[C@@H]4Nc3nc(OC)c(CN4CC[C@@H](C(=O)O)C4)cc3Cl)c2Cl)ccc1CNC[C@@H]1CCC(=O)N1 [A-8] | ≤ 0.064 | 79.7 | – | – |
| COc1nc(-c2cccc(-c3cccc4c3CC[C@@H]4Oc3nc(OC)c(CN4CCC[C@H]4C(=O)O)cc3C(F)(F)F)c2Cl)ccc1CNC[C@@H]1CCC(=O)N1 [B-5] | – | – | 0.064 | 2.67 |
| COc1nc(-c2cccc(-c3cccc4c3CC[C@@H]4Nc3nc(OC)c(CNC(C)(C)C(=O)O)cc3C(F)(F)F)c2Cl)ccc1CN[C@H]1C[C@](C)(O)C1 [A-92] | ≤ 0.064 | 15.1 | – | – |
| COc1nc(-c2cccc(-c3cccc4c3CC[C@@H]4Nc3nc(OC)c(CN4CC[C@@H](C(=O)O)C4)cc3C(F)(F)F)c2Cl)ccc1CN1CC2(CCC(=O)N2)C1 [A-24] | ≤ 0.064 | 38.8 | – | – |
| COc1nc(-c2cccc(-c3cccc4c3CC[C@@H]4Oc3nc(OC)c(CN4CC[C@H](C(=O)O)C4)cc3Cl)c2Cl)ccc1CNC[C@@H]1CCC(=O)N1 [B-114] | – | – | 0.064 | 20.7 |

| Compound | IC50 (PD-1/PD-L1; [1]) [nM] | AC50 (PD-L1; [2]) [nM] | IC50 (PD-1/PD-L1; [3]) [nM] | AC50 (PD-L1; [4]) [nM] |
| --- | --- | --- | --- | --- |
| COc1nc(-c2cccc(-c3cccc4c3CC[C@@H]4Oc3nc(OC)c(CN4CCC[C@@]4(C)C(=O)O)cc3C(F)(F)F)c2Cl)ccc1CNC[C@@H]1CCC(=O)N1 [B-13] | – | – | 0.064 | 3.92 |
| COc1nc(-c2cccc(-c3cccc4c3CC[C@@H]4Oc3nc(OC)c(CN4CC5(CC(C(=O)O)C5)C4)cc3Cl)c2Cl)ccc1CNC[C@@H]1CCC(=O)N1 [B-24] | – | – | 0.064 | 19.4 |
| COc1cc(-c2cccc(-c3cccc4c3CC[C@@H]4Nc3nc(OC)c(CNC4(C(=O)O)CC4)nc3C(F)(F)F)c2Cl)cc(F)c1CNC[C@@H]1CCC(=O)N1 [A-32] | ≤ 0.064 | 12.5 | – | – |
| CCC1C(C(=O)O)CCN1Cc1cc(Cl)c(O[C@H]2CCc3c(-c4cccc(-c5ccc(CNC[C@@H]6CCC(=O)N6)c(OC)n5)c4Cl)cccc32)nc1OC (stereo partly shown) [B-186] | – | – | 0.064 | 19.7 |
| COc1nc(-c2cccc(-c3cccc4c3CC[C@@H]4Nc3nc(OC)c(CN4CCC5CC4(C(=O)O)C5)cc3C(F)(F)F)c2Cl)ccc1CN[C@H]1C[C@](C)(O)C1 [A-58] | ≤ 0.064 | 9.38 | – | – |
| COc1nc(-c2cccc(-c3cccc4c3CC[C@@H]4Oc3nc(OC)c(CN4CC(C(=O)O)C4)nc3C)c2Cl)ccc1CNC[C@@H]1CCC(=O)N1 [B-148] | – | – | 0.064 | 43.2 |
| COc1nc(-c2cccc(-c3cccc4c3CC[C@@H]4Oc3nc(OC)c(CN4CCC(C(=O)N=S(C)(N)=O)CC4)cc3Cl)c2Cl)ccc1CNC[C@@H]1CCC(=O)N1 (stereo partly shown) [B-158] | – | – | 0.064 | 26.9 |
| COc1nc(-c2cccc(-c3cccc4c3CC[C@@H]4Nc3nc(OC)c(CN4CC[C@@](C)(C(=O)O)C4)cc3C(F)(F)F)c2Cl)ccc1CNC[C@@H]1CCC(=O)N1 [A-2, (R)-1-((6-(((S)-4-(2-chloro-3-(6-methoxy-5-(((((S)-5-oxopyrrolidin-2-yl)methyl)amino)methyl)pyridin-2-yl)phenyl)-2,3-dihydro-1H-inden-1-yl)amino)-2-methoxy-5-(trifluoromethyl)pyridin-3-yl)methyl)-3-methylpyrrolidine-3-carboxylic acid] | ≤ 0.064 | 13.5 | – | – |
| COc1nc(-c2cccc(-c3cccc4c3CC[C@@H]4Oc3nc(OC)c(CNC[C@@H]4CCC(=O)N4)nc3C)c2Cl)ccc1CNC[C@@H]1CCC(=O)N1 [B-151] | – | – | 0.072 | 66.2 |
| COc1nc(-c2cccc(-c3cccc4c3CC[C@@H]4Oc3nc(OC)c(CN4CC5CCC4(C(=O)O)CC5)cc3Cl)c2Cl)ccc1CNC[C@@H]1CCC(=O)N1 [B-231] | – | – | 0.064 | 12 |
| COc1nc(-c2cccc(-c3cccc4c3CC[C@@H]4Nc3nc(OC)c(CN[C@@H](C)C(=O)O)cc3C(F)(F)F)c2Cl)ccc1CN1CC(C)(O)C1 [A-63] | ≤ 0.064 | 34.4 | – | – |
| COc1nc(-c2cccc(-c3cccc4c3CC[C@@H]4Oc3nc(OC)c(CN4CCC(C)(C)[C@H]4C(=O)O)cc3Cl)c2Cl)ccc1CNC[C@@H]1CCC(=O)N1 [B-183] | – | – | 0.064 | 25.1 |
| COc1nc(-c2cccc(-c3cccc4c3CC[C@@H]4Oc3cnc(CN4CC[C@@H](C(=O)O)C4)c(OC)n3)c2Cl)ccc1CNC[C@@H]1CCC(=O)N1 [B-156] | – | – | 0.076 | 324 |
| COc1nc(-c2cccc(-c3cccc4c3CC[C@@H]4Oc3nc(OC)c(CN4C[C@H]5C[C@H]5[C@H]4C(=O)O)cc3C(F)(F)F)c2Cl)ccc1CNC[C@@H]1CCC(=O)N1 [B-234] | – | – | 0.064 | 3.18 |
| COc1nc(-c2cccc(-c3cccc4c3CC[C@@H]4Nc3nc(OC)c(CN4CCCC[C@]4(C)C(=O)O)cc3C(F)(F)F)c2Cl)ccc1CN1CC(C)(O)C1 [A-51] | ≤ 0.064 | 106 | – | – |
| COc1cc(N[C@H]2CCc3c(-c4cccc(-c5ccc(CNC[C@@H]6CCC(=O)N6)c(OC)n5)c4Cl)cccc32)c(C(F)(F)F)nc1CNC1(C(=O)O)CC1 [A-37] | ≤ 0.064 | 6.26 | – | – |
| COC[C@H](NCc1cc(C(F)(F)F)c(O[C@H]2CCc3c(-c4cccc(-c5ccc(CN[C@H]6C[C@](C)(O)C6)c(OC)n5)c4Cl)cccc32)nc1OC)C(=O)O [B-256] | – | – | 0.064 | 13.1 |
| COc1nc(-c2cccc(-c3cccc4c3CC[C@@H]4Nc3nc(OC)c(CN[C@@H](C)C(=O)N(C)C)nc3C(F)(F)F)c2Cl)ccc1CNC[C@@H]1CCC(=O)N1 [A-97] | ≤ 0.064 | 6.28 | – | – |
| COc1nc(O[C@H]2CCc3c(-c4cccc(-c5cc(F)c(CNC[C@@H]6CCC(=O)N6)c(OC)n5)c4Cl)cccc32)c(C(F)(F)F)cc1CN1CC[C@@H](C(=O)O)C1 [B-191] | – | – | 0.064 | 12.3 |
